Data as given in patent US20050170397A1, “Novel receptors” (Tularik Inc., priority 2000, published 2005).
“Also recorded” adds a separate entry of the source. Where no end group is shown, it is not given here.

Key:
TGR342 [1] = target: T1, TGR342 (Homo sapiens, UniProt Q969V1); assay: aequorin luminescence assay of intracellular calcium mobilization, TGR342-transfected cells; format: cell-based; conditions: for TGR342 agonist activity at 1 μM / TGR342 agonist activity of MCH-related peptides: FIG. 5; for TGR342 agonist activity of MCH-related peptides: concentration not given; for effect on intracellular calcium levels (peptide library screen): peptides at 1 μM, HEK293 or CHO cells co-transfected with pEF6-V5/TGR342 and pcDNA3/AEQ
T1 construct: The full-length TGR342 cDNA was cloned by; V5 (known only from the vector name pEF6-V5); expressed in transfected cells; host or cells: HEK293 and CHO cells, transient
Procedure: HEK293 and CHO cells were transiently co-transfected with pEF6-V5/TGR342 and pcDNA3/AEQ (expressing aequorin). After 24 hours of incubation, the transfected cells were treated for one hour with serum free medium containing 2 μM coelenterazine f (Molecular Probes). The cells were then collected in the assay buffer HBSS (Hanks' Balanced Saline Solution containing 10 mM hepes and 0.1% BSA). Thereafter, the transfected cells were stimulated with the peptides at a concentration of 1 μM and the kinetics of […] from the cells was recorded with a microplate luminometer (EG & G BERTHOLT).

MCHR1 [2] = target: T2, MCHR1 (Homo sapiens, UniProt Q99705); conditions: stated as known; cited from earlier work
TGR342 [3] = target: T1, TGR342; assay: [^125I]-MCH binding to membranes of TGR342-transfected HEK293 cells; conditions: inhibited by excess unlabeled MCH (data not shown)
MCHR1 [4] = target: T2, MCHR1; assay: Ca^2+ response (aequorin assay) with or without pertussis toxin, MCHR1-transfected cells; format: cell-based; conditions: MCH stimulation; 100 ng/ml PTX pretreatment for 16 hr
Procedure: (§1) The Ca^2+ responses were determined with the aequorin assay. Relative luminescence is expressed as the fold-luminescence of that from the cells treated with the highest cocnetration of the ligand without PTX treatment.
(§2) LPA and ADP, which stimulate Ca^2+ increase through endogenous Gi and Gq receptors, respectively (see, e.g., Moolenaar, Ann. N. Y Acad. Sci. 905:1-10, 2000; Fields et al., Biochem. J. 321:561-571, 1997), were tested as controls. As expected, LPA-induced Ca^2+ response was PTX sensitive while the ADP-induced response was resistant (FIG. 7).

TGR342 [5] = target: T1, TGR342; assay: Ca^2+ response (aequorin assay) with or without pertussis toxin, TGR342-transfected cells; format: cell-based
Procedure: as §1, §2

TGR342 [6] = target: T1, TGR342; assay: inositol phosphate production in TGR342-transfected cells with or without PTX; format: cell-based
endogenous Gq receptors = assay: Ca^2+ response through endogenous Gq receptors with or without PTX (control); format: cell-based; conditions: HEK293 cells; 100 ng/ml PTX for 16 hr; FIG. 7
Procedure: as §1, §2

[7] = 100 ng/ml PTX pretreatment for 16 hr
[8] = HEK293 (or CHO) cells transfected with pEF6/V5-TGR342

T1 sequence (Q969V1 whole entry): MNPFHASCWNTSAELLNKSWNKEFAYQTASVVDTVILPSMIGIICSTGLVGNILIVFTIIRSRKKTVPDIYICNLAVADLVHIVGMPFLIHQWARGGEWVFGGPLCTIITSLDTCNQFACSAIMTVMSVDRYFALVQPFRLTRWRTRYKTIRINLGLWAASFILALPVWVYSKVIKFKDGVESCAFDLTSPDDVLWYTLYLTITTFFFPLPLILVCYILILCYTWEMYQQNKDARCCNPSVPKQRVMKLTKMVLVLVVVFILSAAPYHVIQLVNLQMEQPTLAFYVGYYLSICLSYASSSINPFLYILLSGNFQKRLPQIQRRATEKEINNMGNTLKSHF
T2 sequence (Q99705 whole entry): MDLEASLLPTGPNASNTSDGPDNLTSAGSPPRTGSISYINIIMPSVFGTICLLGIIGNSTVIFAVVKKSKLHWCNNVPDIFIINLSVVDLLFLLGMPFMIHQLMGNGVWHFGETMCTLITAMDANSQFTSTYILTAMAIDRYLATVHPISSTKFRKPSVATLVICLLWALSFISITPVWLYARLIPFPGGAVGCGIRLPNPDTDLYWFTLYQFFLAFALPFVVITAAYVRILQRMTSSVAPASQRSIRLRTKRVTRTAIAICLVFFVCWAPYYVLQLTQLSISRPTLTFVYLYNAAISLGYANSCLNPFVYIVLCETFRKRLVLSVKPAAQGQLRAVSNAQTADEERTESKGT

cortistatin-17
TGR342 agonist activity at 1 μM (TGR342 [1]): None of these peptides exhibited activity

somatostatin-14
TGR342 agonist activity at 1 μM (TGR342 [1]): None of these peptides exhibited activity

neuropeptide-EI: peptide from the same MCH precursor (EIGDEENSAKFPI; ends and bridges not checked; UniProt P20382 131-143, looked up)
TGR342 agonist activity of MCH-related peptides (TGR342 [1]): inactive

neuropeptide GE: peptide from the same MCH precursor (GSVAFPAENGVQNTESTQE; Neuropeptide-glycine-glutamic acid; UniProt P20382 110-128, looked up)
TGR342 agonist activity of MCH-related peptides (TGR342 [1]): inactive

[Phe^13, Tyr^19]-MCH
TGR342 agonist activity of MCH-related peptides (TGR342 [1]): activates
activation of MCHR1 (known) (MCHR1 [2]): bind and activate

α-MSH: the functional MCH antagonist
TGR342 agonist activity at 1 μM (TGR342 [1]): inactive as an agonist
effect on intracellular calcium levels (peptide library screen) (TGR342 [1]): Neither somatostatin nor α-MSH showed any detectable effect

somatostatin-28
TGR342 agonist activity at 1 μM (TGR342 [1]): None of these peptides exhibited activity

CSCC[C@@H]1NC(=O)[C@@H](NC(=O)[C@H](CCCNC(=N)N)NC(=O)[C@H](CC(C)C)NC(=O)[C@H](CCSC)NC(=O)[C@H](CC(=O)O)NC(=O)[C@H](Cc2ccccc2)NC(=O)[C@@H](N)CC(=O)O)CSSC[C@@H](C(=O)N[C@@H](Cc2c[nH]c3ccccc23)C(=O)N[C@@H](CCC(N)=O)C(=O)N[C@H](C(=O)O)C(C)C)NC(=O)[C@@H]2CCCN2C(=O)[C@H](CCCNC(=N)N)NC(=O)[C@H](Cc2ccc(O)cc2)NC(=O)[C@H](C(C)C)NC(=O)[C@H](CCCNC(=N)N)NC(=O)CNC(=O)[C@H](CC(C)C)NC1=O [MCH, melanin-concentrating hormone]
specificity of binding to TGR342 (TGR342 [3]): specific
effect on intracellular calcium levels (peptide library screen) (TGR342 [1]): increased intracellular calcium levels
PTX sensitivity of the Ca^2+ response, MCHR1 (MCHR1 [4]): mostly inhibited
PTX sensitivity of the Ca^2+ response, TGR342 (TGR342 [5]; [7]): insensitive to PTX treatment
Ca^2+ levels in TGR342-transfected cells (TGR342 [5]; [8]): increased levels
PTX sensitivity of the inositol phosphate response, TGR342 (TGR342 [6]; [7]): insensitive to PTX treatment
inositol phosphate levels in TGR342-transfected cells (TGR342 [6]; [8]): increased levels; also recorded: increased the production of inositol phosphate

cortistatin-14 (PCKNFFWKTFSSCK; ends and bridges not checked; cysteine pairing not given here; UniProt Q62949 99-112, looked up) [peptide structurally very similar to somatostatin]
TGR342 agonist activity at 1 μM (TGR342 [1]): None of these peptides exhibited activity

Nc1ncnc2c1ncn2[C@@H]1O[C@H](COP(=O)(O)OP(=O)(O)O)[C@@H](O)[C@H]1O [ADP]
PTX sensitivity of the Ca^2+ response through endogenous Gq receptors (endogenous Gq receptors): resistant
